From ChEMBL document CHEMBL3351732, “Potent bisimidazole-based HCV NS5A inhibitors bearing annulated tricyclic motifs” (Bioorg Med Chem Lett, 2014)

Legend:
Hepatitis C virus [1] = assay: Antiviral activity against HCV genotype 1a infected in human HuH7 cells by luciferase reporter gene assay; assay type: functional, cell-based, Hepacivirus hominis; conditions: subtype 1a, Huh-7
Hepatitis C virus [2] = assay: Antiviral activity against HCV genotype 1b infected in human HuH7 cells by luciferase reporter gene assay; assay type: functional, cell-based, Hepacivirus hominis; conditions: Huh-7
Hepatitis C virus [3] = assay: Antiviral activity against HCV genotype 3a infected in human HuH7 cells by luciferase reporter gene assay; assay type: functional, cell-based, Hepacivirus hominis; conditions: Huh-7
[4] = Clearance in Sprague-Dawley rat at 1 mg/kg, iv; assay type: ADME, organism-based; set-up: dose 1 mg/kg, route intravenous; conditions: Sprague-Dawley, in vivo
[5] = Volume of distribution at steady state in Sprague-Dawley rat at 1 mg/kg, iv; assay type: ADME, organism-based; set-up: dose 1 mg/kg, route intravenous; conditions: in vivo, read-out: Vdss
[6] = Half life in Sprague-Dawley rat at 1 mg/kg, iv; assay type: ADME, organism-based; set-up: dose 1 mg/kg, route intravenous; conditions: in vivo
[7] = AUC(last) in Sprague-Dawley rat at 1 mg/kg, iv; assay type: ADME, organism-based, Plasma; set-up: time 0 - last, dose 1 mg/kg, route intravenous; conditions: Sprague-Dawley, plasma
[8] = Tmax in Sprague-Dawley rat at 5 mg/kg, po; assay type: ADME, organism-based; set-up: dose 5 mg/kg, route oral; conditions: in vivo
[9] = Cmax in Sprague-Dawley rat at 5 mg/kg, po; assay type: ADME, organism-based; set-up: dose 5 mg/kg, route oral; conditions: in vivo
[10] = AUC(last) in Sprague-Dawley rat at 5 mg/kg, po; assay type: ADME, organism-based; set-up: dose 5 mg/kg, route oral, time 0 - last; conditions: plasma
[11] = Oral bioavailability in Sprague-Dawley rat at 5 mg/kg; assay type: ADME, organism-based; conditions: in vivo
[12] = Drug level in Sprague-Dawley rat liver at 5 mg/kg, po measured 4 hrs post dose; assay type: ADME, organism-based; set-up: dose 5 mg/kg, route oral; conditions: read-out: Drug uptake
[13] = Plasma concentration in Sprague-Dawley rat at 5 mg/kg, po measured 4 hrs post dose; assay type: ADME, organism-based; set-up: dose 5 mg/kg, route oral
[14] = Tmax in Sprague-Dawley rat at 75 mg/kg, po; assay type: ADME, organism-based; set-up: dose 75 mg/kg, route oral; conditions: in vivo
[15] = Cmax in Sprague-Dawley rat at 75 mg/kg, po; assay type: ADME, organism-based; set-up: dose 75 mg/kg, route oral; conditions: in vivo
[16] = AUC(last) in Sprague-Dawley rat at 75 mg/kg, po; assay type: ADME, organism-based; set-up: time 0 - last, dose 75 mg/kg, route oral; conditions: plasma
[17] = Tmax in Sprague-Dawley rat at 250 mg/kg, po; assay type: ADME, organism-based; set-up: dose 250 mg/kg, route oral; conditions: in vivo
[18] = Cmax in Sprague-Dawley rat at 250 mg/kg, po; assay type: ADME, organism-based; set-up: dose 250 mg/kg, route oral; conditions: in vivo
[19] = AUC(last) in Sprague-Dawley rat at 250 mg/kg, po; assay type: ADME, organism-based; set-up: time 0 - last, dose 250 mg/kg, route oral; conditions: plasma
[20] = Clearance in beagle dog at 1 mg/kg, iv; assay type: ADME, organism-based, Canis lupus familiaris; set-up: dose 1 mg/kg, route intravenous; conditions: in vivo
[21] = Volume of distribution at steady state in beagle dog at 1 mg/kg, iv; assay type: ADME, organism-based, Canis lupus familiaris; set-up: dose 1 mg/kg, route intravenous; conditions: in vivo, read-out: Vdss
[22] = Half life in beagle dog at 1 mg/kg, iv; assay type: ADME, organism-based, Canis lupus familiaris; set-up: dose 1 mg/kg, route intravenous; conditions: in vivo
[23] = AUC(last) in beagle dog at 1 mg/kg, iv; assay type: ADME, organism-based, Canis lupus familiaris; set-up: time 0 - last, dose 1 mg/kg, route intravenous; conditions: plasma
[24] = Tmax in beagle dog at 5 mg/kg, po; assay type: ADME, organism-based, Canis lupus familiaris; set-up: dose 5 mg/kg, route oral; conditions: in vivo
[25] = Cmax in beagle dog at 5 mg/kg, po; assay type: ADME, organism-based, Canis lupus familiaris; set-up: dose 5 mg/kg, route oral; conditions: in vivo
[26] = AUC(last) in beagle dog at 5 mg/kg, po; assay type: ADME, organism-based, Canis lupus familiaris; set-up: time 0 - last, dose 5 mg/kg, route oral; conditions: plasma
[27] = Oral bioavailability in beagle dog at 5 mg/kg; assay type: ADME, organism-based, Canis lupus familiaris; conditions: in vivo
[28] = Tmax in beagle dog at 75 mg/kg, po; assay type: ADME, organism-based, Canis lupus familiaris; set-up: dose 75 mg/kg, route oral; conditions: in vivo
[29] = Cmax in beagle dog at 75 mg/kg, po; assay type: ADME, organism-based, Canis lupus familiaris; set-up: dose 75 mg/kg, route oral; conditions: in vivo
[30] = AUC(last) in beagle dog at 75 mg/kg, po; assay type: ADME, organism-based, Canis lupus familiaris; set-up: time 0 - last, dose 75 mg/kg, route oral; conditions: plasma
[31] = Tmax in beagle dog at 250 mg/kg, po; assay type: ADME, organism-based, Canis lupus familiaris; set-up: dose 250 mg/kg, route oral; conditions: in vivo
[32] = Cmax in beagle dog at 250 mg/kg, po; assay type: ADME, organism-based, Canis lupus familiaris; set-up: dose 250 mg/kg, route oral; conditions: in vivo
[33] = AUC(last) in beagle dog at 250 mg/kg, po; assay type: ADME, organism-based, Canis lupus familiaris; set-up: dose 250 mg/kg, route oral, time 0 - last; conditions: plasma
[34] = Clearance in cynomolgus monkey at 1 mg/kg, iv; assay type: ADME, organism-based, Macaca fascicularis; set-up: dose 1 mg/kg, route intravenous; conditions: in vivo
[35] = Volume of distribution at steady state in cynomolgus monkey at 1 mg/kg, iv; assay type: ADME, organism-based, Macaca fascicularis; set-up: dose 1 mg/kg, route intravenous; conditions: in vivo, read-out: Vdss
[36] = Half life in cynomolgus monkey at 1 mg/kg, iv; assay type: ADME, organism-based, Macaca fascicularis; set-up: dose 1 mg/kg, route intravenous; conditions: in vivo
[37] = AUC(last) in cynomolgus monkey at 1 mg/kg, iv; assay type: ADME, organism-based, Macaca fascicularis; set-up: time 0 - last, dose 1 mg/kg, route intravenous; conditions: plasma
[38] = Tmax in cynomolgus monkey at 5 mg/kg, po; assay type: ADME, organism-based, Macaca fascicularis; set-up: dose 5 mg/kg, route oral; conditions: in vivo
[39] = Cmax in cynomolgus monkey at 5 mg/kg, po; assay type: ADME, organism-based, Macaca fascicularis; set-up: dose 5 mg/kg, route oral; conditions: in vivo
[40] = AUC(last) in cynomolgus monkey at 5 mg/kg, po; assay type: ADME, organism-based, Macaca fascicularis; set-up: time 0 - last, dose 5 mg/kg, route oral; conditions: plasma
[41] = Oral bioavailability in cynomolgus monkey at 5 mg/kg; assay type: ADME, organism-based, Macaca fascicularis; conditions: in vivo
[42] = Tmax in cynomolgus monkey at 75 mg/kg, po; assay type: ADME, organism-based, Macaca fascicularis; set-up: dose 75 mg/kg, route oral; conditions: in vivo
[43] = Cmax in cynomolgus monkey at 75 mg/kg, po; assay type: ADME, organism-based, Macaca fascicularis; set-up: dose 75 mg/kg, route oral; conditions: in vivo
[44] = AUC(last) in cynomolgus monkey at 75 mg/kg, po; assay type: ADME, organism-based, Macaca fascicularis; set-up: time 0 - last, dose 75 mg/kg, route oral; conditions: plasma
[45] = Tmax in cynomolgus monkey at 250 mg/kg, po; assay type: ADME, organism-based, Macaca fascicularis; set-up: dose 250 mg/kg, route oral; conditions: in vivo
[46] = Cmax in cynomolgus monkey at 250 mg/kg, po; assay type: ADME, organism-based, Macaca fascicularis; set-up: dose 250 mg/kg, route oral; conditions: in vivo
[47] = AUC(last) in cynomolgus monkey at 250 mg/kg, po; assay type: ADME, organism-based, Macaca fascicularis; set-up: time 0 - last, dose 250 mg/kg, route oral; conditions: plasma
Hepatitis C virus [48] = assay: Antiviral activity against HCV genotype 4a infected in human HuH7 cells by luciferase reporter gene assay; assay type: functional, cell-based, Hepacivirus hominis; conditions: Huh-7
Hepatitis C virus [49] = assay: Antiviral activity against HCV genotype 5a infected in human HuH7 cells by luciferase reporter gene assay; assay type: functional, cell-based, Hepacivirus hominis; conditions: Huh-7
Hepatitis C virus [50] = assay: Antiviral activity against HCV genotype 6a infected in human HuH7 cells by luciferase reporter gene assay; assay type: functional, cell-based, Hepacivirus hominis; conditions: Huh-7
[51] = Tmax in Sprague-Dawley rat at 5 mg/kg, po formulated with 5%MC, 95% saline; assay type: ADME, organism-based; set-up: dose 5 mg/kg, route oral; conditions: in vivo
[52] = Cmax in Sprague-Dawley rat at 5 mg/kg, po formulated with 5%MC, 95% saline; assay type: ADME, organism-based; set-up: dose 5 mg/kg, route oral; conditions: in vivo
[53] = AUC(last) in Sprague-Dawley rat at 5 mg/kg, po formulated with 5%MC, 95% saline; assay type: ADME, organism-based; set-up: time 0 - last, dose 5 mg/kg, route oral; conditions: plasma
[54] = Oral bioavailability in Sprague-Dawley rat at 5 mg/kg formulated with 5%MC, 95% saline; assay type: ADME, organism-based; conditions: in vivo

Compound `COC(=O)N[C@H](C(=O)N1CCC[C@H]1c1ncc(-c2ccc3c(c2)Oc2ccc(-c4cnc([C@@H]5CCCN5C(=O)[C@@H](NC(=O)OC)C(C)C)[nH]4)cc2C3(C)C)[nH]1)C(C)C` has an EC50 (Hepatitis C virus [1]) of 0.073 nM, an EC50 (Hepatitis C virus [2]) of 0.011 nM and an EC50 (Hepatitis C virus [3]) of 0.29 nM. It also gave a clearance [4] of 17.8 mL/min/kg, a Vd [5] of 1.8 L/kg and a half-life [6] of 1.41 h. It also gave an AUC(0-t) [7] of 926 ng·h/mL, a Tmax [8] of 3 h and a Cmax [9] of 874 ng/mL. For the same compound, the AUC(0-t) [10] was 5250 ng·h/mL, the bioavailability [11] was 112% and the concentration at 4 h [12] was 2610 ng/mL. The concentration at 4 h [13] was 833 ng/mL, the Tmax [14] was 4 h and the Cmax [15] was 12400 ng/mL. For the same compound, the AUC(0-t) [16] was 137000 ng·h/mL, the Tmax [17] was 3.33 h and the Cmax [18] was 16200 ng/mL. It also gave an AUC(0-t) [19] of 187000 ng·h/mL, a clearance [20] of 2.67 mL/min/kg and a Vd [21] of 0.74 L/kg. The half-life [22] was 3.77 h, the AUC(0-t) [23] was 6180 ng·h/mL and the Tmax [24] was 1 h. The Cmax [25] was 2760 ng/mL, the AUC(0-t) [26] was 16500 ng·h/mL and the bioavailability [27] was 53.4%. For the same compound, the Tmax [28] was 4 h, the Cmax [29] was 6400 ng/mL and the AUC(0-t) [30] was 83000 ng·h/mL. It also gave a Tmax [31] of 5 h, a Cmax [32] of 12200 ng/mL and an AUC(0-t) [33] of 192000 ng·h/mL. The clearance [34] was 7 mL/min/kg, the Vd [35] was 1.33 L/kg and the half-life [36] was 3.56 h. It also gave an AUC(0-t) [37] of 2380 ng·h/mL, a Tmax [38] of 3 h and a Cmax [39] of 486 ng/mL. The AUC(0-t) [40] was 3370 ng·h/mL, the bioavailability [41] was 28.4% and the Tmax [42] was 3 h. The Cmax [43] was 3600 ng/mL, the AUC(0-t) [44] was 17800 ng·h/mL and the Tmax [45] was 4 h. For the same compound, the Cmax [46] was 8100 ng/mL, the AUC(0-t) [47] was 46600 ng·h/mL and the EC50 (Hepatitis C virus [48]) was 0.025 nM. For the same compound, the EC50 (Hepatitis C virus [49]) was 0.017 nM, the EC50 (Hepatitis C virus [50]) was 0.062 nM and the Tmax [51] was 0.5 h. For the same compound, the Cmax [52] was 761 ng/mL, the AUC(0-t) [53] was 4120 ng·h/mL and the bioavailability [54] was 88.9%.
